According to patent US7371555B2, “Polypeptides having α-H-α-amino acid amide racemase activity and nucleic acids encoding the same” (DSM IP Assets B.V., priority 2002, dated 2008):
Residues, ends and D or L forms follow the SMILES beside them.

Legend:
[1] = target: T1, α-amino-ε-caprolactam racemase from Achromobacter obae (Achromobacter obae, UniProt Q7M181); conditions: even when an excess amount of enzyme was used; cited from earlier work
T1 sequence (Q7M181 1-436): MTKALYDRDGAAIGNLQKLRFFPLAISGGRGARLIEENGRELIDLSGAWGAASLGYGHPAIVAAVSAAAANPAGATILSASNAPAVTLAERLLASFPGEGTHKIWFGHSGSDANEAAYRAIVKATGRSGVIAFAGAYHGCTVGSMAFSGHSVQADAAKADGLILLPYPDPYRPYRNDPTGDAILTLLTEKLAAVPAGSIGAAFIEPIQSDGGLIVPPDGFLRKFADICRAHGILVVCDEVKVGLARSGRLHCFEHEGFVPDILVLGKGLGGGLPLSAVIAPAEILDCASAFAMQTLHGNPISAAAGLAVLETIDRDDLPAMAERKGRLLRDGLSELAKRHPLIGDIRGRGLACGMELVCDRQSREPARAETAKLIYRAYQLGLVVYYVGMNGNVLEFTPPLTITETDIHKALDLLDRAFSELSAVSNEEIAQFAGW

[2] = system: partially purified α-H-α-amino acid amide racemase from O. anthropi IA; assay: Substrate specificity of the partially purified racemase (Example 8); assay type: biochemical, Ochrobactrum anthropi IA; parameters: tested at 75 mM; conditions: relative to the activity towards L-leucine amide; pH 8.0, 37° C.
Method: The substrate specificity of the O. anthropi IA α-H-α-amino acid amide racemase was determined using the partially purified enzyme preparation obtained by the protocol described above. Reaction mixtures of 1 ml total volume were prepared by mixing 772 μl of 66.6 mM HEPES-NaOH, pH 8.0, 10 μl of 0.1 M dithiothreitol, 18 μl of a solution containing 20 mg/ml BSA and 1 mM pyridoxal-5-phosphate, and 100 μl of a 0.75 M substrate solution, pH 8.0. After equilibration for 5 minutes at 37° C., the reactions were started by the addition of 100 μl of the enzyme solution. Reaction mixtures were incubated at 37° C. without shaking. After regular time intervals, samples of 50 μl were taken and transferred into vials containing 950 μl of 1 M H3PO4 to stop the reaction. After sufficient dilution of the samples in 0.4 M borate buffer pH 9.4, the mixtures obtained were analyzed using HPLC to determine the exact concentrations of two amino acid amide enantiomers according to the method of Example 7.
Initial activity for the different substrates tested was calculated from the linear parts of the progress curves, in which the amount of the amino acid amide enantiomer formed (so with a stereochemistry opposite to the substrate molecule) was plotted against the reaction time.

[3] = system: α-H-α-amino acid amide racemase from Arthrobacter nicotianae NCIMB 41126; assay: Substrate specificity, CFE from E. coli DH10B/pAn(1)PLV36D06 (Example 9); assay type: biochemical; conditions: relative to the activity towards D-leucine amide; 75 mM substrate, pH 8.0, 37° C.
Method: Preparation of the CFE of E. coli DH10B/pAn(1)PLV36D06 was performed as described in Example 7 for E. coli TOP10/pKEC_AZAR—3
Before applying the CFE from E. coli DH10B/pAn(1)PLV36D06 in the reactions with different enantiomerically pure α-H-α-amino acid amides to determine the substrate specificity of the A. nicotianae α-H-α-amino acid amide racemase, the E. coli amidases/aminopeptidases in this CFE were inhibited by a pre-treatment with an inhibitor cocktail. One tablet of Complete Mini Protease Inhibitor Cocktail (Roche Applied Science, Mannheim, Germany) was dissolved in 9 ml of the CFE followed by an incubation of 1 hour at room temperature. Next, reaction mixtures of 10 ml each (including the CFE) were prepared containing 50 mM HEPES-NaOH, pH 8.0, 20 μM pyridoxal-5-phosphate, 0.4 mg/ml BSA, 1 mM dithiothreitol and 75 mM of one of the amino acid amides tested. Reactions were started by the addition of 1 ml of the pre-treated CFE of E. coli DH10B/pAn(1)PLV36D06 or E. coli TOP10/pBAD/Myc-HisC (blank) and were incubated at 37° C. At regular time intervals samples of 1 ml were taken and transferred to vials containing 1 ml of 1M H3PO4 to stop the reaction. After sufficient dilution of the samples in 0.4 M borate buffer pH 9.4, the mixtures obtained were analyzed using HPLC to determine the exact concentrations of the two amino acid and two amino acid amide enantiomers according to the method of Example 7.

[4] = system: α-H-α-amino acid amide racemase from Ochrobactrum anthropi IA; assay: Substrate specificity, CFE from E. coli TOP10/pKEC_AZAR_3 (Example 7); assay type: biochemical; conditions: relative to the activity towards D-leucine amide; 75 mM substrate, 20 mM EDTA, pH 8.0, 37° C.
Method: Two pre-cultures of E. coli TOP10/pKEC_AZAR—3 (see Example 4) were prepared by inoculation of 2 erlenmeyer flasks with 100 ml of 2*TY medium (10 g/l Yeast extract, 16 g/l Tryptone, 5 g/l NaCl) containing 50 mg/l of kanamycin with 10 μl of a glycerol stock per flask. After overnight cultivation at 28° C. and 200 rpm, the pre-cultures were pooled, and subsequently used to inoculate 2 erlenmeyer flasks each containing 1 l of the same medium. Also these flasks were cultivated at 28° C. and 200 rpm for 16-18 h. Cells were harvested by centrifugation (15 min. at 6,200×g, 4° C.), washed with 20 mM HEPES-NaOH, pH 7.5, pooled, weighed, and resuspended in a solution containing 20 mM HEPES-NaOH, pH 7.5, 20 μM pyridoxal-5-phosphate, and 1.3 mM of dithiothreitol in a 1:3 ratio of wet weight cells to solution. Then, cells were disintegrated by 10 min. sonification with a Soniprep 150 of MSE operated at maximum amplitude using time intervals of 10 sec. (i.e., 10 sec. sonification, 10 sec. cooling) and cooling in ice/acetone. Particles were removed by centrifugation, after which sucrose was added to the cell free extract to a final concentration of 0.25 M. The resulting cell free extract (CFE) was stored in aliquots at −20° C. E. coli TOP10/pBAD/Myc-HisC (Invitrogen) cells were treated in exactly the same way and served as negative control.
The substrate specificity of the α-H-α-amino acid racemase from O. anthropi IA was determined by measuring the racemase activity of the above-mentioned CFE towards a number of enantiomerically pure amino acid amides. Each reaction mixture of 10 ml (including the CFE) contained 50 mM HEPES-NaOH, pH 8.0, 20 μM pyridoxal-5-phosphate, 0.4 mg/ml BSA, 1 mM dithiothreitol, 20 mM EDTA and 75 mM of one of the amino acid amides tested. Reactions were started by the addition of 1 ml of the thawed CFE of E. coli TOP10/pKEC_AZAR—3 or E. coli TOP10/pBAD/Myc-HisC (blank) and were incubated at 37° C. At regular time intervals samples of 1 ml were taken and transferred to vials containing 1 ml of 1M H3PO4 to stop the reaction. After sufficient dilution of the samples in 0.4 M borate buffer pH 9.4, the mixtures obtained were analyzed using HPLC to determine the exact concentrations of the two amino acid and two amino acid amide enantiomers according to the following method.
The initial activity for the different substrates tested was calculated from the linear parts of the progress curves, in which the conversion was plotted against the reaction time. Use of the linear part of the progress curves secured that only samples taken at time points at which the substrate concentration was still sufficiently high, were used for the calculations. The conversion was calculated by dividing the amount of amino acid and amino acid amide formed via the racemase reaction (so with the opposite stereochemistry compared to the substrate molecule) by the total amount of two amino acid enantiomers and the two amino acid amide enantiomers.

[5] = system: lyophilized O. anthropi IA cells; assay: α-H-α-amino acid amide racemase activity of lyophilized O. anthropi IA cells; assay type: biochemical, Ochrobactrum anthropi IA; conditions: approximately 72 hours at 40° C., 10 times diluted reaction mixture
Method: O. anthropi IA cells were cultivated in Medium A containing DL-α-amino-ε-caprolactam (2 g/l) as sole nitrogen source. After incubation at 28° C. and 200 rpm for three days (OD620 nm=4.7), cells were harvested by centrifugation, washed in 20 mM HEPES-NaOH buffer of pH 7.7 and lyophilized.
The assay mixture consisted of 10 mM HEPES-NaOH buffer (pH 7.7) containing toluene (2,5 v/v %), pyridoxal-5-phosphate (20 μM), D- or L-leucine amide (2.5 m %) and in some cases EDTA (20 mM). Per assay 150 mg of lyophilized cells were used. Chemical blanks (with the assay mixture without the O. anthropi IA cells) were used as a negative control. All reaction mixtures (including the blanks) were incubated for approximately 72 hours at 40° C. before the reaction was stopped by the addition of 9 volumes of 1 M H3PO4. Finally, the reaction mixtures were analyzed by HPLC to determine the concentrations of D- and L-leucine amide and of D- and L-leucine. o-Phthaldehyde in combination with D-3-mercapto-2-methylpropionic acid was used in this HPLC method as a chiral reagent for the enantioseparation of these amino compounds (Duchateau, et al., J. Chromatogr. (1992) 623:237-245).
In a number of reactions EDTA was added to inhibit L- and/or D-specific amidase(s) present in the O. anthropi IA cells.
Without EDTA, amidases convert the substrate and/or product α-H-α-amino acid amides into α-H-α-amino acids thereby preventing direct detection of the other α-H-α-amino acid amide enantiomer as racemization product. […] Formation of L-leucine from D-leucine amide could not be detected in the chemical blank.

[6] = system: E. coli clones with plasmid encoded A. nicotianae NCIMB 41126 α-H-α-amino acid amide racemase activity; assay: Confirmation of potential positive clones of the A. nicotianae NCIMB 41126 gene library; assay type: cell-based, Arthrobacter nicotianae NCIMB 41126; conditions: 70 mM substrate, 10 μM pyridoxal-5-phosphate, 20 h at 30° C.
Method: Of all 32 potential positive clones identified in the screening, material from the masterplates was used to inoculate 3 ml of liquid screening medium containing 50 mg/l kanamycin. After growth for 2 days at 30° C., cells were collected by centrifuging 2 ml of these cell cultures. Then the cell pellets were washed four times in 25 mM Tris-HCl buffer, pH 7.5. Subsequently, the cell pellets were resuspended in 100 μl substrate solution containing 70 mM of D-phenylalanine amide, or D-leucine amide, or D-valine amide in 50 mM Tris-HCl, pH 7.5 and 1 mM MnCl2. After incubation for 20 h at 30° C., the reactions were stopped by the addition of 100 μl of 0.15 M HCl, after which the reaction mixtures were analyzed by the HPLC method described in Example 1.
Confirmation of both potential positive clones was done according to the protocol given in Example 3, with the exception that all 3 substrate solutions used contained 10 μM of pyridoxal-5-phosphate.

Row | Structure (SMILES) | α-H-α-amino acid amide racemase activity [1] | Rel. initial activity [2] [%] | other results
1 | CC(C)[C@H](N)C(=O)NCC(=O)O [L-valyl-glycine] (H-Val-Gly-OH) | no α-H-α-amino acid amide racemase activity was found | – | –
2 | C[C@H](N)C(N)=O [L-alanine amide] | – | 350 | –
3 | CCC[C@@H](N)C(N)=O [D-norvaline amide] | – | 341 | Rel. initial activity [3]: 107%; Rel. initial activity [4]: 94%
4 | C[C@@H](N)C(N)=O [D-alanine amide] | – | – | Rel. initial activity [4]: 85%
5 | NC(=O)[C@@H](N)Cc1c[nH]c2ccccc12 [L-tryptophan amide] | no α-H-α-amino acid amide racemase activity was found | – | –
6 | CC(C)[C@H](N)C(N)=O [L-valine amide] | – | 4.5 | –
7 | CC(C)C[C@H](N)C(=O)NCC(=O)O [L-leucyl-glycine] (H-Leu-Gly-OH) | no α-H-α-amino acid amide racemase activity was found | – | –
8 | CC(C)C[C@H](N)C(=O)N[C@@H](C)C(=O)O [L-leucyl-L-alanine] (H-Leu-Ala-OH) | no α-H-α-amino acid amide racemase activity was found | – | –
9 | NC(=O)[C@@H](N)Cc1ccccc1 [L-phenylalanineamide] | – | 4.5 | –
10 | CC[C@H](C)[C@H](N)C(N)=O [LL-isoleucine amide] | – | 4.5 | –
11 | CC[C@H](N)C(N)=O [L-2-aminobutyric acid amide] | – | 641 | Rel. initial activity [3]: 76%; Rel. initial activity [4]: 203%
12 | C[C@H](O)[C@H](N)C(N)=O [LL-threonine amide] | – | 100 | –
13 | CC(C)C[C@H](N)C(N)=O [L-leucine amide] | no α-H-α-amino acid amide racemase activity was found | 100 | D-leucine ([5]; with EDTA (20 mM)): 0.003 m %; D-leucine amide ([5]; with EDTA (20 mM)): 0.021 m %; L-leucine ([5]; with EDTA (20 mM)): 0.058 m %; L-leucine amide ([5]; with EDTA (20 mM)): 0.15 m %; D-leucine ([5]; without EDTA): 0.001 m %; D-leucine amide ([5]; without EDTA): <0.001 m %; L-leucine ([5]; without EDTA): 0.21 m %; L-leucine amide ([5]; without EDTA): <0.001 m %
14 | NC(=O)[C@@H](N)CO [L-serine amide] | – | – | Rel. initial activity [4]: 83%
15 | NC(=O)[C@H](N)c1ccccc1 [D-phenylglycineamide] | – | 9.1 | –
16 | CC(C)[C@@H](N)C(N)=O [D-valine amide] | – | – | conversion of D-amide into L-acid [6]: significantly converted; Rel. initial activity [3]: 45%
17 | CC(C)[C@H](N)C(=O)N[C@@H](C)C(=O)O [L-valyl-L-alanine] (H-Val-Ala-OH) | no α-H-α-amino acid amide racemase activity was found | – | –
18 | NC(=O)[C@H](N)CCCC1OCCO1 [D-2-amino-5-[1,3]dioxolan-2-yl-pentanoicacid amide] | – | 9.1 | –
